According to patent US9370508B2, “Imidazoquinolines as dual lipid kinase and mTOR inhibitors” (NOVARTIS AG, priority 2007, dated 2016):

Key:
[1] = test system: ribosomal protein S6 phosphorylation; experiment: 96-well in-cell western assay of ribosomal protein S6 phosphorylation in HeLa cells; type: cell-based; settings: Homo sapiens, 1 h, 60 min stimulation with nutrients in the presence or absence of 100 nM insulin, anti-phospho(Ser235-236)S6, read-out: induced phosphorylation of S6, mean IC50
Protocol: A 96-well “in-cell western” assay is used to quantitate the levels of ribosomal protein S6 phosphorylation following treatment of HeLa cells with compounds. HeLa cells are seeded on to 96-wells plates (5000 cells/well), cultured for 72 h prior to serum deprivation for 18 h, in a humidified environment of 5% CO2 at 37° C. throughout. Thereafter, they are incubated in 200 μL of starve-medium for 180 min prior to a 60 min stimulation with 200 μL of test-medium. All solutions are pre-warmed for 30 min; the 96-well plates are sealed (Millipore) and incubated in a non-CO2 incubator at 37° C. during the starvation and stimulation protocol. […] After a 48 h blocking step in Tris buffered saline pH=7.2 containing 0.1% Triton-X100 and 0.1% bovine serum albumin, at 4° C., fixed cells are incubated overnight at 4° C. with the anti-phospho(Ser235-236)S6 primary antibody (Cell Signaling Technologies #2211 [can be substituted with Cell Signaling Technologies #2215 to quantitate S6 phosphorylation at Ser240-244]; 50 μL at 1:300 in blocking-solution), washed (8×200 μL TBS) before 100 μL of europium-labeled anti-rabbit secondary antibody (Perkin-Elmer; 2.4 μg/mL) is added for 90 min at room temperature in the dark. After a final wash (8×200 μL TBS), 100 μL of Delphia™ Enhancement-solution is added to each well and the fluorescence quantified 120 min later using an Envision 2101 (Perkin-Elmer). […]

mTOR enzyme = molecular target: T1, mTOR enzyme (Homo sapiens, UniProt P42345); experiment: K-LISA mTOR activity kit biochemical assay; settings: GST-S6K1 substrate, 100 μM ATP, 30 minutes at 30° C., anti-phospho Thr389 detection; read-out: mTOR kinase activity, mean IC50
T1 construct: purchased Calbiochem CBA055
Protocol: This mixture is then transferred to a glutathione-coated 96-well plate pre-incubated with GST-S6K1 recombinant protein. Kinase reactions are initiated by adding kinase buffer containing 100 μM ATP and are incubated for 30 minutes at 30° C. mTOR activity is quantitated using an anti-phospho Thr389-HRP conjugate detection system. Wortmannin served as control compound for the mTOR kinase activity assay.

IC50 [1] [µM] | IC50 (mTOR enzyme) [µM] | SMILES
0.017 | – | Cn1c(=O)n(-c2ccc(C(C)(C)C#N)cc2)c2c3cc(-c4cnc5ccccc5c4)ccc3ncc21 [compound 1, 2-Methyl-2-[4-(3-methyl-2-oxo-8-quinolin-3-yl-2,3-dihydro-imidazo[4,5-c]quinolin-1-yl)-phenyl]-propionitrile]
0.011 | 0.0014 | COc1ccc(-c2ccc3ncc4c(c3c2)n(-c2ccc(N3CCNCC3)c(C(F)(F)F)c2)c(=O)n4C)cn1 [compound 2, 8-(6-Methoxy-pyridin-3-yl)-3-methyl-1-(4-piperazin-1-yl-3-trifluoromethyl-phenyl)-1,3-dihydro-imidazo[4,5-c]quinolin-2-one]
